Source: PMC8286840, “Identifying SARS-CoV-2 antiviral compounds by screening for small molecule inhibitors of Nsp3 papain-like protease” (Biochemical Journal, 2021)
Structures can show the parent of a compound that is named as a salt. Where two headings read alike, the source gives them in different places.

Experiments:
[1] = target: T1, SARS-CoV-2 PLpro (nsp3 1564–1878) (Severe acute respiratory syndrome coronavirus 2, UniProt P0DTD1); experiment: biochemical; set-up: FRET-quenched peptide (Pro3) cleavage by PLpro, 10 min pre-incubation, slope over 20 min, normalised to no-compound control; conditions: low concentration screen, read-out: % of control remaining
[2] = target: T1, SARS-CoV-2 PLpro (nsp3 1564–1878); experiment: biochemical; set-up: FRET-quenched peptide (Pro3) cleavage by PLpro, 10 min pre-incubation, slope over 20 min, normalised to no-compound control; conditions: high concentration screen, read-out: % of control remaining

## CC[C@H](C)C(=O)O[C@H]1CCC=C2C=C[C@H](C)[C@H](CC[C@@H]3C[C@@H](O)CC(=O)O3)[C@H]21 [Mevastatin]
[1]; Well no.=922
  remaining activity at 1.25 µM: 105%
[1]; Well no.=1618
  remaining activity at 1.25 µM: 102%
[1]; Well no.=3381
  remaining activity at 1.25 µM: 90.7%
[2]; Well no.=922
  remaining activity at 3.75 µM: 104%
[2]; Well no.=1618
  remaining activity at 3.75 µM: 103%
[2]; Well no.=3381
  remaining activity at 3.75 µM: 91.3%

## COc1ccc(-c2cc(C(F)F)nn2-c2ccc(S(N)(=O)=O)cc2)cc1F [Deracoxib]
[1]; Well no.=7408
  remaining activity at 1.25 µM: 106%
[2]; Well no.=7408
  remaining activity at 3.75 µM: 102%

## CCn1nc(C(=O)O)c(=O)c2cc3c(cc21)OCO3 [Cinoxacin]
[1]; Well no.=332
  remaining activity at 1.25 µM: 98.1%
[2]; Well no.=332
  remaining activity at 3.75 µM: 96.9%

## C[C@H]1C(=O)O[C@@H]2CCN3CC=C(COC(=O)[C@](C)(O)[C@]1(C)O)[C@H]23 [Monocrotaline]
[1]; Well no.=3777
  remaining activity at 1.25 µM: 102%
[2]; Well no.=3777
  remaining activity at 3.75 µM: 103%

## CCCCCCCCCCCCCCCC(=O)OC[C@H](O)[C@H]1OC(=O)C(O)=C1O [Ascorbyl palmitate]
[1]; Well no.=4041
  remaining activity at 1.25 µM: 102%
[2]; Well no.=4041
  remaining activity at 3.75 µM: 105%

## CC[C@@H](C(=O)[C@@H](C)[C@@H](O)[C@H](C)CCc1ccc(C)c(O)c1C(=O)O)[C@H]1O[C@](CC)([C@H]2CC[C@](O)(CC)[C@H](C)O2)C[C@@H]1C [Lasalocid A]
[1]; Well no.=3737
  remaining activity at 1.25 µM: 95%
[2]; Well no.=3737
  remaining activity at 3.75 µM: 95.2%

## COc1ccc(C[C@@H]2c3cc(OC)c(OC)cc3CC[N@+]2(C)CCC(=O)OCCCCCOC(=O)CC[N@@+]2(C)CCc3cc(OC)c(OC)cc3[C@H]2Cc2ccc(OC)c(OC)c2)cc1OC [Atracurium besylate]
[1]; Well no.=2133
  remaining activity at 1.25 µM: 92.8%
[2]; Well no.=2133
  remaining activity at 3.75 µM: 98.2%

## FC(F)(F)c1cc(CO[C@H]2CCCN[C@H]2c2ccccc2)cc(C(F)(F)F)c1 [L-733,060 hydrochloride]
[1]; Well no.=918
  remaining activity at 1.25 µM: 99.8%
[2]; Well no.=918
  remaining activity at 3.75 µM: 103%

## CC(C)(C)c1ccc(S(=O)(=O)NCc2ccc(C(=O)Nc3cccnc3)cc2)cc1 [STF-31]
[1]; Well no.=6059
  remaining activity at 1.25 µM: 94.9%
[2]; Well no.=6059
  remaining activity at 3.75 µM: 94.5%

## COc1ccc(-c2ccc3c(N4CCOCC4)nc(N4C[C@@H](C)O[C@@H](C)C4)nc3n2)cc1CO [KU0063794]
[1]; Well no.=2899
  remaining activity at 1.25 µM: 105%
[2]; Well no.=2899
  remaining activity at 3.75 µM: 103%

## O=C(OC12CC3CC(CC(C3)C1)C2)c1ccc(NCc2cc(O)ccc2O)cc1 [Adaphostin]
[1]; Well no.=5772
  remaining activity at 1.25 µM: 105%
[2]; Well no.=5772
  remaining activity at 3.75 µM: 109%

## N[C@@H]1CN(c2c(F)cc3c(=O)c(C(=O)O)cn([C@@H]4C[C@@H]4F)c3c2Cl)CC12CC2 [Sitafloxacin hydrate]
[1]; Well no.=4770
  remaining activity at 1.25 µM: 97.9%
[2]; Well no.=4770
  remaining activity at 3.75 µM: 93.3%

## O=c1oc2cc(O)ccc2c2oc3cc(O)ccc3c12 [Coumestrol]
[1]; Well no.=3514
  remaining activity at 1.25 µM: 100%
[2]; Well no.=3514
  remaining activity at 3.75 µM: 93.2%

## Cc1ccccc1N(C)C(=O)c1ccc([S+]([O-])c2nccs2)c([N+](=O)[O-])c1 (stereo not drawn) [SB-268262]
[1]; Well no.=5777
  remaining activity at 1.25 µM: 99.5%
[2]; Well no.=5777
  remaining activity at 3.75 µM: 100%

## CCN(CC)CC(=O)Nc1c(C)cccc1C [Lidocaine hydrochloride]
[1]; Well no.=883
  remaining activity at 1.25 µM: 104%
[2]; Well no.=883
  remaining activity at 3.75 µM: 108%

## O=C(O)CNC(=O)C1C(=O)N(C2CCCCC2)C(=O)N(C2CCCCC2)C1=O [Daprodustat (GSK1278863)]
[1]; Well no.=8534
  remaining activity at 1.25 µM: 96.6%
[2]; Well no.=8534
  remaining activity at 3.75 µM: 99.9%

## CCCCC(=O)O[C@]1(C(=O)CO)[C@@H](C)C[C@H]2[C@@H]3CCC4=CC(=O)C=C[C@]4(C)[C@@]3(F)[C@@H](O)C[C@@]21C [Betamethasone valerate]
[1]; Well no.=5651
  remaining activity at 1.25 µM: 94.9%
[2]; Well no.=5651
  remaining activity at 3.75 µM: 97.2%

## CNC(=O)[C@H]1O[C@@H](n2cnc3c(NCc4cccc(I)c4)nc(Cl)nc32)[C@H](O)[C@@H]1O [2-Cl-IB-MECA]
[1]; Well no.=6316
  remaining activity at 1.25 µM: 95%
[2]; Well no.=6316
  remaining activity at 3.75 µM: 90.2%

## CC(C)N1CCC(N2CCCN(c3cccc(C(=O)Nc4ccncc4)n3)CC2)CC1 [USL311]
[1]; Well no.=8707
  remaining activity at 1.25 µM: 99.4%
[2]; Well no.=8707
  remaining activity at 3.75 µM: 103%

## CCCCCCCCCCCCCCCCCC(=O)NCC(COP(=O)([O-])OCC[N+](C)(C)C)OCC (racemic) [rac-2-Ethoxy-3-octadecanamido-1-propylphosphocholine]
[1]; Well no.=413
  remaining activity at 1.25 µM: 102%
[2]; Well no.=413
  remaining activity at 3.75 µM: 101%

## C[C@]12CC[C@@H]3c4ccc(O)cc4CC[C@H]3[C@@H]1C[C@@H](O)[C@@H]2O [Estriol]
[1]; Well no.=2036
  remaining activity at 1.25 µM: 105%
[1]; Well no.=6489
  remaining activity at 1.25 µM: 104%
[2]; Well no.=2036
  remaining activity at 3.75 µM: 104%
[2]; Well no.=6489
  remaining activity at 3.75 µM: 108%

## CC(=O)NS(=O)(=O)c1ccc(N)cc1 [Sulfacetamide (Sodium)]
[1]; Well no.=7510
  remaining activity at 1.25 µM: 103%
[2]; Well no.=7510
  remaining activity at 3.75 µM: 102%

## COc1ccc2c(c1)CC[C@@H]1[C@@H]2CC[C@]2(C)[C@@H](NCCCCCCN3C(=O)C=CC3=O)CC[C@@H]12 [U-73122]
[1]; Well no.=1332
  remaining activity at 1.25 µM: 103%
[2]; Well no.=1332
  remaining activity at 3.75 µM: 105%

## C[N+](C)(C)CCOC(=O)CBr [Bromoacetylcholine bromide]
[1]; Well no.=181
  remaining activity at 1.25 µM: 102%
[2]; Well no.=181
  remaining activity at 3.75 µM: 98.9%

## O=C1c2c(O)cc(O)cc2O[C@H](c2ccc(O)c(O)c2)[C@H]1O [(+)-Taxifolin]
[1]; Well no.=3825
  remaining activity at 1.25 µM: 101%
[2]; Well no.=3825
  remaining activity at 3.75 µM: 101%

## C[C@]12CC[C@@H](O)C[C@@H]1CC[C@@H]1[C@@H]2CC[C@]2(C)C(=O)CC[C@@H]12 [Androsterone]
[1]; Well no.=298
  remaining activity at 1.25 µM: 98.5%
[1]; Well no.=6435
  remaining activity at 1.25 µM: 99.9%
[2]; Well no.=298
  remaining activity at 3.75 µM: 99.3%
[2]; Well no.=6435
  remaining activity at 3.75 µM: 97.6%

## COC(=O)C1=C(C)NC(C)=C(C(=O)OCCN(C)Cc2ccccc2)C1c1cccc([N+](=O)[O-])c1 (stereo not drawn) [Nicardipine hydrochloride]
[1]; Well no.=811
  remaining activity at 1.25 µM: 103%
[2]; Well no.=811
  remaining activity at 3.75 µM: 103%

## Oc1cc2c(cc1O)[C@H]1c3ccccc3CN[C@@H]1CC2 (racemic) [Dihydrexidine hydrochloride]
[1]; Well no.=645
  remaining activity at 1.25 µM: 87.6%
[2]; Well no.=645
  remaining activity at 3.75 µM: 91.3%

## Nc1ccc2c3c(cccc13)C(=O)NC2=O [4-Amino-1,8-naphthalimide]
[1]; Well no.=295
  remaining activity at 1.25 µM: 103%
[2]; Well no.=295
  remaining activity at 3.75 µM: 92.9%

## CCCCc1oc2ccccc2c1C(=O)c1cc(I)c(OCCN(CC)CC)c(I)c1 [Amiodarone.HCl]
[1]; Well no.=1591
  remaining activity at 1.25 µM: 104%
[2]; Well no.=1591
  remaining activity at 3.75 µM: 103%

## CP(=O)(O)C1=CCNCC1 [TPMPA]
[1]; Well no.=1474
  remaining activity at 1.25 µM: 100%
[2]; Well no.=1474
  remaining activity at 3.75 µM: 102%

## Nc1nc(Nc2ccc(S(N)(=O)=O)cc2)nn1C(=S)Nc1c(F)cccc1F [Cdk1/2 Inhibitor III]
[1]; Well no.=2368
  remaining activity at 1.25 µM: 99.3%
[2]; Well no.=2368
  remaining activity at 3.75 µM: 102%
